Key:
Assay type in all cases: in vivo, canine
Settings in all cases: plasma after overnight fasting in fifth week of feeding, correlations with P value < 0.01
Canines [1] = assay: Metabolite correlations with fiber digestibility (plasma metabolomics)
Method: (§1) 83 Canines were all fed Diet A for 5 weeks, followed by a 1 week transition period and then 15 were fed Diet B for 5 weeks as shown in the Table 1 below. Plasma samples were taken after overnight fasting using EDTA vacutainer tubes during the fifth week of feeding of each diet. After centrifugation, plasma was aliquoted into cryovials and frozen at −80° C.
(§2) Metabolomic analysis was carried out using the following methods by Metabolon Inc. Samples were extracted and split into equal parts for analysis on GC/MS and LC/MS/MS platforms. Proprietary software was used to match ions to an in-house library of standards for metabolite identification and for metabolite quantitation by peak area integration by Metabolon Inc. Mass and retention index are provided in the following tables such that each metabolite can be uniquely identified and individually distinguished.
(§3) At the time of analysis, samples were thawed and extracts prepared to remove protein, dislodge small molecules bound to protein or physically trapped in the precipitated protein matrix, and recover a wide range of chemically diverse metabolites. A separate aliquot of each experimental plasma sample was taken then pooled for the creation of “Client Matrix” (CMTRX) samples. These CMTRX samples were injected throughout the platform run and served as technical replicates, allowing variability in the quantitation of all consistently detected biochemicals to be determined and overall process variability and platform performance to be monitored. Extracts of all experimental and CMTRX samples were split for analysis on the GC/MS and LC/MS/MS platforms.
(§4) The CMTRX technical replicate samples were treated independently throughout the process as if they were client study samples. All process samples (CMTRX and Grob test mixtures of organic components used to assess GC column performance, process blanks, etc.) were spaced evenly among the injections for each day and all client samples were randomly distributed throughout each day's run. Data were collected over multiple platform run days and thus ‘block normalized’ by calculating the median values for each run-day block for each individual compound. […] Missing values (if any) were assumed to be below the level of detection for that biochemical with the instrumentation used and were imputed with the observed minimum for that particular biochemical.
A number of internal standards were added to each experimental and process standard sample just prior to injection into the mass spectrometers. A measure of the platform variability (7%) was determined by calculating the median relative standard deviation (RSD) for these internal standards. Because these standards are added to the samples immediately prior to injection into the instrument, this value reflects instrument variation. In addition, the median relative standard deviation (RSD) for the biochemicals that were consistently measured in the CMTRX represents the total variability within the process for the actual experimental samples and the variability in quantitation of the endogenous metabolites within these samples (12%).
589 total metabolites were detected in plasma. […]
Metabolite correlations with fiber digestibility were determined based on plasma metabolomics (Table 10). […] The metabolite compositions of the two different diets were determined in order to identify relative levels of specific compounds.

Canines [2] = assay: Metabolite correlations with organic matter digestibility (plasma metabolomics)
Method: as §1, §2, §3, §4
(§5) A number of internal standards were added to each experimental and process standard sample just prior to injection into the mass spectrometers.
Metabolite correlations with organic matter digestibility were determined based on plasma metabolomics (Table 2). […] The metabolite compositions of the two different diets were determined to identify relative levels of specific compounds.

Canines [3] = assay: Metabolite correlations with dry matter digestibility (plasma metabolomics)
Method: as §1, §2, §3, §4, §5
Metabolite correlations with dry matter digestibility were determined based on plasma metabolomics (Table 6). […] Feeding different levels of these compounds (diet B vs diet A; Table 7), and noting changes in dry matter digestibility (Table 8), served as a validation model. The metabolite compositions of the two different diets were determined to identify relative levels of specific compounds.

Molecule	Correlation with fiber digestibility (Canines [1])	Correlation with organic matter digestibility (Canines [2])	Correlation with dry matter digestibility (Canines [3])
Cc1c(C)c2c(c(C)c1O)CC[C@@](C)(CCC[C@H](C)CCC[C@H](C)CCCC(C)C)O2 [alpha-tocopherol]	−0.3263		
CC(C)C(=O)C(=O)O [3-methyl-2-oxobutyrate]		0.3345	0.3102
CC(C)(O)C(=O)O [2-hydroxyisobutyrate]		0.3269	0.2975
N[C@@H](CCC(=O)N[C@@H](CSSC[C@H](N)C(=O)O)C(=O)NCC(=O)O)C(=O)O [cysteine-glutathione disulfide]		−0.5693	−0.5458
arabonate		−0.3117	−0.3013
CCCCC/C=C\C/C=C\CCCCCCCC(=O)O [linoleate (18:2n6)]		0.287	
dihomo-linolenate (20:3n3 or n6)		0.4357	0.3649
CCCCC/C=C\C/C=C\C/C=C\C/C=C\C/C=C\CCC(=O)O [docosapentaenoate (n6 DPA; 22:5n6)]		0.4971	0.4484
CCCCCCCCCCCCCCCC(=O)OCC(O)CO (centres unmarked) [1-palmitoylglycerol (1-monopalmitin)]	−0.3548		
CCCCC/C=C\C/C=C\C/C=C\C/C=C\CCCC(=O)O [arachidonate (20:4n6)]		0.5395	0.4779
CCCCC/C=C\C/C=C\C/C=C\C/C=C\CCCCCC(=O)O [adrenate (22:4n6)]		0.4225	0.366
1-palmitoylplasmenylethanolamine	−0.3651	−0.4149	−0.4127
CCC(N)C(=O)O (centres unmarked) [2-aminobutyrate]		0.4586	0.4535
CCCCCCCCCCCCCCCCCC(=O)O [stearate (18:0)]		0.2845	
linolenate [alpha or gamma; (18:3n3 or 6)]		0.3932	0.372
CCCCCCCC/C=C\CCCCCCCC(=O)OC(CO)COP(=O)(O)OCCN (centres unmarked) [2-oleoylglycerophosphoethanolamine]		−0.3761	−0.3648
C[N+]1(C)CCC[C@H]1C(=O)[O-] [stachydrine]		−0.3927	−0.3121
CCCCC/C=C\C/C=C\CCCCCCCCCC(=O)O [dihomo-linoleate (20:2n6)]		0.5242	0.4696
O=C(O)CO [glycolate (hydroxyacetate)]		0.3449	0.3124

Molecule	Correlation with fiber digestibility (Canines [1])	Correlation with organic matter digestibility (Canines [2])	Correlation with dry matter digestibility (Canines [3])
C[n+]1cccc(C(=O)[O-])c1 [trigonelline (N′-methylnicotinate)]		−0.5801	−0.5297
CC(O)CC(=O)O (centres unmarked) [3-hydroxybutyrate (BHBA)]		0.4249	0.3858
CCCCC/C=C\C/C=C\CCCCCCCC(=O)OCC(O)COP(=O)(O)OCCN (centres unmarked) [1-linoleoylglycerophosphoethanolamine]		−0.2924	
CCCCCCCC(=O)O[C@H](CC(=O)O)C[N+](C)(C)C [octanoylcarnitine]		0.3604	0.3264
OC[C@@H](O)C(O)[C@H](O)CO [arabitol]		−0.3609	−0.369
OC[C@H]1OC[C@H](O)[C@@H](O)[C@@H]1O [1,5-anhydroglucitol (1,5-AG)]		−0.2973	
OC[C@@H](O)[C@@H](O)[C@@H](O)CO [ribitol]	−0.3122		
CCCCCCCCCCCCCCCC(=O)O [palmitate (16:0)]		0.3027	0.2862
CCCCC/C=C\C/C=C\CCCCCCCC(=O)O[C@H](CO)COP(=O)(O)OCCN [2-linoleoylglycerophosphoethanolamine]		−0.3461	−0.3262
CCCCCC/C=C\CCCCCCCC(=O)O [palmitoleate (16:1n7)]		0.3097	0.3089
CC/C=C\C/C=C\C/C=C\C/C=C\C/C=C\CCCCCC(=O)O [docosapentaenoate (n3 DPA; 22:5n3)]		0.4157	0.3814
threonate		0.3788	0.3492
CCCCCCCCCCCCCCCCC(=O)OC[C@@H](O)COP(=O)(O)OCCN [1-heptadecanoylglycerophosphoethanolamine]	−0.4181	−0.4779	−0.4635
O=C(O)C(O)CO (centres unmarked) [glycerate]		0.3968	0.3423
CC(C)(O)CC(=O)O [beta-hydroxyisovalerate]		0.3342	0.2994
CCCCCCCC/C=C\CCCCCCCC(=O)OCC(O)COP(=O)(O)OCCN (centres unmarked) [1-oleoylglycerophosphoethanolamine]		−0.4678	−0.4501
campesterol		−0.3283	−0.3101
eicosenoate (20:1n9 or 11)		0.4051	0.3674
O=C(O)C1CCCCN1 (centres unmarked) [pipecolate]		0.415	0.3661
